Assay results: patent US20230329994A1, “Surfactant Containing Formulation of Pseudo-Ceramides” (Symrise AG, priority 2020, published 2023)

Tests used:
[1] = Solubility: visual appearance of shampoo formulations; assay type: physicochemical; conditions: 0.1 in shampoo, surfactant approx. 14%; after preparation, after 3 days at 5° C. and 3 days at room temperature
Description: The solubility of the pseudoceramide CeramideBio in shampoo is evaluated in comparison to Ceramide 2 and Ceramide 3.
Shampoo Formulations: • Surfactant content: Approx. 14% 01
The shampoo formulations were prepared as follows: Phase A components were blended by gentle stirring; the process was stopped, when foaming starts.
The ceramides/pseudoceramide were predispersed in polyglyceryl-4-caprate and heated up to 90° C. The ceramides/pseudoceramide were melted and finely dispersed. Ucare Polymer JR-400 and water were added and the mixture was heated up to 90° C. again and stirred for 10 minutes.
Phases B, C and D were added to phase A one after the other by stirring. After that, the mixture was stirred slowly with a vane stirrer until the solution was homogeneous. At last Phase E was added by stirring with a vane stirrer. The pH value was adjusted to about 5.4 to 5.8.
The visual appearance of the shampoo formulations was evaluated after preparation, after 3 days storage at 5° C. and 3 day at room temperature.
The visual appearance of the shampoo formulations is depicted in FIG. 1. From left to the right: Sample CeramideBio (01_B), Ceramide 2 (02_B), Ceramide 3 (03_B).

[2] = Hair shine/luster evaluation (SAMBA system)
Description: The hair luster was measured with a shampoo formulation according to the present invention containing pseudoceramide CeramideBio (shampoo, 1.0%), a shampoo formulation containing Ceramide 2 (shampoo, 1%) and a Placebo (shampoo).
Principle: Hair luster test analyzes the light reflection from the hair surface and other interactions of the incident light with the hair. The measurement is made by using SAMBA system. The results are expressed by luster: parameter calculated from values of shine, chroma and diffused light to express the observer perception of the gloss effect. The higher is the value, the best impression of the observer regarding gloss effect of the hair. […]

[3] = Swelling test / hydrophobicity of hair fibers; conditions: for diameter variation of the hair after 180 s: 1× bleached tresses
Description: The swelling of the hair was measured with a conditioning formulation according to the present invention containing pseudoceramide CeramideBio (leave-on, 0.5 and 0.05%), a conditioning formulation containing Ceramide 2 (leave-on, 0.5% and 0.05%) and a Placebo (leave-on).
Principle: Through diameter measurements it is possible to determine the level of swelling of a hair fiber over time when in contact with water. The swelling test evaluates the action of materials in forming a hydrophobic film on hair surface in order to prevent humidity from penetrating the hair, which in turn provokes the hair diameter variation. The laser measures the variation in the fiber diameter as it absorbs water over a pre-determined time. According to the fiber condition or the film covering its surface, the level of swelling may change. The more damaged the hair, the more hydrophilic it is, since most of the hair damages take the lipids, ceramides and other hydrophobic substances away from the hair, and, consequently, more swelling is noticed. Parameter measured: variation in hair diameter (%).
Swelling Test: • 3 Caucasian hair tresses (2.5 g, 25 cm, 1× bleached) were cleaned with a sodium laureth sulfate solution (SLES) (10%) for 1 minute; • Test samples (see above) were applied to each tress (0.25 ml of sample; massaging for 1 minute); • Tresses were left for drying at controlled environment (22±2° C.; 50±5% RH) overnight; • 45 fibers from each treatment were collected randomly and fixed in plastic tabs one by one; • Swelling test was performed during 180 s; • Variation on fiber's diameter was calculated; • Comparisons among treatments were performed using one-way variance analysis (ANOVA), followed by Tukey's honestly significant difference (HSD) test, at a 95% confidence interval.

Structure (SMILES)	recrystallization in shampoo formulation (visual appearance) [1]	effect on hair luster ([2]; shampoo formulation containing 1.0%)	luster of the hair compared to shampoo formulation with Ceramide 2 ([2]; shampoo, 1.0%, applied 5 times, 3× bleached tresses)	diameter variation of the hair after 180 s compared to conditioning formulation with Ceramide 2 ([3]; leave-on conditioning formulation)	diameter variation of the hair after 180 s ([3]; leave-on conditioning formulation, higher concentration (0.5%))	diameter variation of the hair after 180 s ([3]; leave-on conditioning formulation, lower concentration (0.05%))	hair fiber swelling / hydrophobicity versus non-treated hair, placebo and leave-on with 0.05% Ceramide 2 ([3]; leave-on formulation containing 0.05%)
CCCCCCCCCCCCCCCCCCCCCCCC(=O)N[C@@H](CO)[C@H](O)C(O)CCCCCCCCCCCCCC (stereo partly drawn) [Ceramide 3]	showed recrystallization	–	–	–	–	–	–
CCCCCCCCCCCCCCCCCC(=O)N[C@@H](CO)[C@H](O)CCCCCCCCCCCCCCC [Ceramide 2]	showed recrystallization	–	–	–	–	–	–
CCCCCCCCCCCCCCCCOC(=O)[C@@H]1C[C@@H](O)CN1C(=O)CCCCCCCCCCCCCCC [CeramideBio, Cetylhydroxyproline palmitamide]	without recrystallization	able to increase hair luster	higher	smaller	15.90%	14.44%	statistically decreasing its swelling
